Structures are written as SMILES. Structures can show the parent of a compound that is named as a salt.

Test system in one data set: not given
Experiment: not given
Conditions: not given
Take `COC(=O)c1cccc(-c2nc(C(=O)c3ccc(N)c(OC)c3)n3ccccc23)c1`: the melting point came out at 166 °C. The same measure, in the same setting: for `COc1cc(C(=O)c2ncc3cc(C(=O)O)ccn23)ccc1[N+](=O)[O-]` the value was more than 350 °C; for `COC(=O)c1ccc2cnc(C(=O)c3ccc([N+](=O)[O-])c(OC)c3)n2c1`, 218 °C. On the same count and under the same terms, as for `COC(=O)c1ccc2cnc(C(=O)c3ccc(N)c(OC)c3)n2c1`, the figure is 179 °C. `COc1cc(C(=O)c2nc(C#N)c3ccccn23)ccc1N` (as salt: HCl) registered a melting point of 224 °C. Still for that read-out and setting: as for `COc1cc(C(=O)c2nc(Br)c3ccccn23)ccc1N` (as salt: HCl) (hydrate or solvate), the figure is 204 °C; as for `COc1cccc(C(=O)Nc2nc(C(=O)c3ccc(N)c(OC)c3)n3ccccc23)c1` (as salt: HCl) (hydrate or solvate), 199 °C. On the same count and under the same terms, for `COc1cc(C(=O)c2nc(-c3cccc(F)c3)c3ccccn23)ccc1N` (as salt: HCl) (hydrate or solvate) the value was 228 °C. The same measure, in the same setting: as for `COc1cc(C(=O)c2ncc3cc(C(=O)O)ccn23)ccc1N` (as salt: HCl) (hydrate or solvate), the figure is 268 °C; as for `COC(=O)[C@@H](C)NC(=O)c1ccn2c(C(=O)c3ccc(N)c(OC)c3)ncc2c1` (as salt: HCl) (hydrate or solvate), 192 °C.

For the compound `COc1cc(C(=O)c2ncc3c(C(=O)O)cccn23)ccc1N` (as salt: Na), the melting point came out at 259 °C.

`COc1cc(C(=O)c2ncc3c(C(=O)O)cccn23)ccc1[N+](=O)[O-]` (as salt: Na) returned a melting point of 332 °C.

On to `COc1cccc(-c2nc(C(=O)c3ccc(N)c(OC)c3)n3ccc(C(=O)O)cc23)c1` (as salt: Na) (hydrate or solvate), for which the melting point was 307 °C.

`COc1cc(C(=O)c2ncc3cc(OCC(=O)O)ccn23)ccc1N` (as salt: Na) (hydrate or solvate): the melting point came to 302 °C. As to `COc1cc(C(=O)c2ncc3ccc(C(=O)N[C@@H](CO)C(=O)O)cn23)ccc1N` (as salt: Na) (hydrate or solvate), the melting point came to 244 °C.

Another data set has as its system level of circulating platelets. As to the kind of experiment: Effect on thrombopenia induced by carboplatin in the mouse. The conditions noted are these: 150 mg/kg intraperitoneally, balbC mice, at nadir. The class given is in vivo. An excerpt:
Thrombopenia remains a pathology for which few effective treatments exist apart from the transfusion of platelet concentrates and thrombopoietin (Kaushansky, K., New Eng. J. Med., (1998), 339, pp. 746-754).
Anticancer chemotherapy constitutes one of the major causes of thrombopenia. One of the agents of chemotherapy, carboplatin, has been widely used to induce thrombopenia in the mouse and to be able thus to characterize the effect of compounds capable of improving the level of platelets, such as, for example, thrombopoietin (Hokom M. M. et al., Blood, (1995), 86, pp. 4486-4492).
150 mg/kg of carboplatin were administered intraperitoneally to balbC mice having a weight of 20 g. A blood sample is taken periodically by retro-orbital puncture and the level of circulating platelets is determined by a hematology automated machine (MS9™ from Melet-Schloesing Laboratoires, Cergy-Pontoise, France). […]
The compounds according to the invention or their solvent (a blank-control) are administered by the oral route for 5 days, the treatment being begun 7 days before the administration of carboplatin. The experiments are carried out on batches comprising 10-12 mice and the results are expressed as a mean±standard error. […]
Take `N.N.O=C([O-])C1(C(=O)[O-])CCC1.[Pt+2]` [carboplatin]: the “reduction in the level of circulating platelets” value was 50-60%.

Broadly, the melting point is the temperature of the solid-liquid transition.

Values taken from patent US8633216B2, “Imidazo[1,5-a]pyridine derivatives, method for preparing same and pharmaceutical compositions containing same” (Sanofi, priority 2005, dated 2014).
